Data from BindingDB's records for doi:10.1007/s10822-022-00478-x (Roche Innovation Center Basel, F. Hoffmann-La Roche Ltd., 2022).

These compounds were tested against cAMP and cAMP-inhibited cGMP 3',5'-cyclic phosphodiesterase 10A (Homo sapiens, UniProt Q9Y233) (assay: PDE10A assay).
Procedure, shortened: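 Scintillation proximity readout of [3H]cGMP hydrolysis (50 nM final substrate, 15 min) by 2 ng/well human PDE10A after 15 min compound preincubation at RT, pH 7.5 with MgCl2. Four-parameter logistic fit gave IC50, reported as pIC50.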

Row | Compound | IC50
1 | O=C1c2ccccc2C(=O)N1CCc1nc(-c2ccncc2)no1 [Roche-Dataset for PDE10A, Compound 570] | 11900 nM
2 | CC(=O)Nc1cccc(NC(=O)c2nc(C3CC3)cnc2Nc2cncnc2)c1 [Roche-Dataset for PDE10A, Compound 571] | 35 nM
3 | CN(C)c1nc(/C=C/c2cccc(Br)n2)nc2ccc(Cl)cc12 [Roche-Dataset for PDE10A, Compound 574] | 281 nM
4 | CNC(=O)c1cc(NC(=O)c2nc(C3CC3)ccc2Nc2cncnc2)n(C)n1 [Roche-Dataset for PDE10A, Compound 576] | 74 nM
5 | O=C1c2ccccc2C(=O)N1CCc1nc(-c2cccnc2)no1 [Roche-Dataset for PDE10A, Compound 579] | 16400 nM
6 | CN(CCNC(=O)c1nc(C2CC2)cnc1Nc1cncnc1)C(=O)c1ccccn1 [Roche-Dataset for PDE10A, Compound 581] | 10000 nM
7 | Cc1c(Cl)cc(Cl)c2nc(CCc3nncn3-c3ccccc3)nn12 [Roche-Dataset for PDE10A, Compound 582] | 72 nM
8 | CN(C)c1nc(OCc2cc3ccccn3n2)nc2ccc(Cl)cc12 [Roche-Dataset for PDE10A, Compound 586] | 423 nM
9 | O=C(NCCC(=O)N1CCOCC1)c1nc(C2CC2)cnc1Nc1cncnc1 [Roche-Dataset for PDE10A, Compound 591] | 1520 nM
10 | Cc1ncc(C)n2nc(/C=C/c3nc(N4CCCC4)cn3C)nc12 [Roche-Dataset for PDE10A, Compound 596] | 326 nM
11 | O=C(Nc1ccn(CCO)n1)c1nc(C2CC2)ccc1Nc1cncnc1 [Roche-Dataset for PDE10A, Compound 597] | 50 nM
12 | CCc1nc(CNC(=O)c2cnn(C)c2C(=O)Nc2ccn3cc(-c4ccccc4)nc3n2)cs1 [Roche-Dataset for PDE10A, Compound 601] | 1130 nM
13 | O=C(Nc1ccn2nc(-c3ccccc3)nc2c1)c1ccno1 [Roche-Dataset for PDE10A, Compound 606] | 2350 nM
14 | COc1ccc(Cl)cc1C(=O)Nc1cc(-c2ccccn2)nn1C [Roche-Dataset for PDE10A, Compound 608] | 1380 nM
15 | Cc1ncc(C)n2nc(CCc3nc(C(=O)N(C)C)cn3C)nc12 [Roche-Dataset for PDE10A, Compound 609] | 1590 nM
16 | Cc1ccc(Nc2cncnc2)c(C(=O)Nc2ccn([C@]34C[C@H]5C[C@H](C[C@H](C5)C3)C4)n2)n1 [Roche-Dataset for PDE10A, Compound 610] | 52 nM
17 | CN(C)c1nc(/C=C/c2nc(Br)cs2)nc2ccc(Cl)cc12 [Roche-Dataset for PDE10A, Compound 612] | 1470 nM
18 | O=C(Nc1cnn(Cc2ccccc2)c1)c1nc(C2CC2)ccc1Nc1cncnc1 [Roche-Dataset for PDE10A, Compound 614] | 69 nM
19 | Cc1c(Cl)cc(C(F)(F)F)c2nc(CCc3nc(I)nn3C)nn12 [Roche-Dataset for PDE10A, Compound 615] | 123 nM
20 | Cc1ncc(C)n2nc(/C=C/c3nc(-c4cc[nH]n4)nn3C)nc12 [Roche-Dataset for PDE10A, Compound 618] | 46 nM
21 | CNC(=O)c1cc2[nH]c(-c3ccccc3)nc2cc1NC(=O)c1cc[nH]n1 [Roche-Dataset for PDE10A, Compound 619] | 390 nM
22 | O=C(Nc1ccnc(Cl)n1)c1cn(-c2ccc3ccccc3n2)cn1 [Roche-Dataset for PDE10A, Compound 627] | 1230 nM

Row | Compound | IC50
23 | Cc1ncc(C)n2nc(/C=C/c3ncn(-c4ccccc4)n3)nc12 [Roche-Dataset for PDE10A, Compound 629] | 162 nM
24 | O=C(NCc1nccn1Cc1ccccc1)c1nc(C2CC2)cnc1Nc1cncnc1 [Roche-Dataset for PDE10A, Compound 631] | 273 nM
25 | COc1cnc(C)n2c(CCc3nc(N4CCCC4)nn3C)nnc12 [Roche-Dataset for PDE10A, Compound 633] | 4190 nM
26 | Cn1nc(-c2ccccn2)cc1NC(=O)c1cc(Br)c[nH]c1=O [Roche-Dataset for PDE10A, Compound 636] | 295 nM
27 | O=C(N[C@@H](CO)Cc1ccccc1)c1nc(C2CC2)cnc1Nc1cncnc1 [Roche-Dataset for PDE10A, Compound 641] | 1430 nM
28 | O=C(Nc1ccnn1CC(F)F)c1nc(C2CC2)ccc1Nc1cncnc1 [Roche-Dataset for PDE10A, Compound 642] | 46 nM
29 | Cn1cc(-c2ccccc2)nc1COc1nc2ccccc2nc1C(F)(F)F [Roche-Dataset for PDE10A, Compound 644] | 26 nM
30 | Cc1ncc(C)n2nc(/C=C/c3nc(Br)cn3-c3ccccc3)nc12 [Roche-Dataset for PDE10A, Compound 648] | 202 nM
31 | CN(c1nc2cc(NC(=O)c3c(C(=O)O)cnn3C)ccn2n1)C1CC1 [Roche-Dataset for PDE10A, Compound 649] | 42 nM
32 | CNC(=O)c1cc2[nH]c(-c3ccccc3)nc2cc1NC(=O)c1cc(C(C)(C)C)nn1C [Roche-Dataset for PDE10A, Compound 650] | 114 nM
33 | O=C(Nc1cc(C2CCCC2)n[nH]1)c1nc(C2CC2)ccc1Nc1cncnc1 [Roche-Dataset for PDE10A, Compound 653] | 375 nM
34 | CCn1nccc1NC(=O)c1ccc2cc(-c3ccccc3)nn2c1 [Roche-Dataset for PDE10A, Compound 654] | 575 nM
35 | Cn1nc(-c2ccccn2)cc1NC(=O)c1cccc2c1OCCO2 [Roche-Dataset for PDE10A, Compound 655] | 10000 nM
36 | CNC(=O)c1cnn(C)c1C(=O)Nc1ccn2cc(-c3cccc(F)c3)nc2n1 [Roche-Dataset for PDE10A, Compound 656] | 62 nM
37 | Cc1ncc(Br)c2nc(CCc3nc(N4CCCC4)nn3C)nn12 [Roche-Dataset for PDE10A, Compound 658] | 34 nM
38 | COC(=O)c1cccnc1C(=O)Nc1ccn2nc(-c3ccccc3)nc2c1 [Roche-Dataset for PDE10A, Compound 659] | 2720 nM
39 | O=C(NC[C@@H]1[C@@H](c2ccccc2)C1(F)F)c1nc(C2CC2)cnc1Nc1cncnc1 [Roche-Dataset for PDE10A, Compound 661] | 954 nM
40 | Cn1nc(-c2ccccn2)cc1NC(=O)c1ccn(CC(F)(F)F)n1 [Roche-Dataset for PDE10A, Compound 662] | 10000 nM
41 | O=C(NCCCS(=O)(=O)c1ccccc1)c1nc(C2CC2)cnc1Nc1cncnc1 [Roche-Dataset for PDE10A, Compound 665] | 822 nM
42 | CCOc1ccccc1C(=O)Nc1cc(-c2ccccn2)nn1C [Roche-Dataset for PDE10A, Compound 666] | 2380 nM
43 | O=C(NCc1ccc(C(F)(F)F)cc1)c1nc(C2CC2)cnc1Nc1cncnc1 [Roche-Dataset for PDE10A, Compound 668] | 100 nM

The next lines start with the values.

Row | IC50 | Compound
44 | 5.65 nM | O=C(Nc1ccn(C2CCCC2)n1)c1nc(C2CC2)ccc1Nc1cncnc1 [Roche-Dataset for PDE10A, Compound 580]
45 | 2.86 nM | CCc1cnc(C)n2nc(CCc3nc(N4CCCC4)nn3C)nc12 [Roche-Dataset for PDE10A, Compound 584]
46 | 4.05 nM | Cc1nc2cc(Cl)ccc2nc1OCc1nc(-c2ccccc2)cn1C [Roche-Dataset for PDE10A, Compound 587]
47 | 10 nM | O=C(Nc1ccn2nc(-c3ccccc3)nc2c1)c1onc2ccc(Br)cc12 [Roche-Dataset for PDE10A, Compound 592]
48 | 23 nM | O=C(Nc1ccn(CC2CC2)n1)c1nc(C2CC2)ccc1Nc1cncnc1 [Roche-Dataset for PDE10A, Compound 593]
49 | 9.77 nM | Cn1cc(-c2ccccc2)nc1COc1cnc2cc(Cl)ccc2n1 [Roche-Dataset for PDE10A, Compound 598]
50 | 26 nM | CCOc1cccc(NC(=O)c2nc(C3CC3)cnc2Nc2cncnc2)c1 [Roche-Dataset for PDE10A, Compound 602]
51 | 6.39 nM | O=C(Nc1ccn(CC(F)(F)F)n1)c1nc(C2CC2)ccc1Nc1cncnc1 [Roche-Dataset for PDE10A, Compound 603]
52 | 3.28 nM | Cc1ncc(C2CC2)c2nc(CCc3nc(N4CCCC4)nn3C)nn12 [Roche-Dataset for PDE10A, Compound 605]
53 | 1.93 nM | O=C(Nc1cnoc1-c1ccccc1)c1nc(C2CC2)ccc1Nc1cncnc1 [Roche-Dataset for PDE10A, Compound 607]
54 | 0.09 nM | CNC(=O)c1cc2[nH]c(-c3ccccc3)nc2cc1NC(=O)c1nc(C2CC2)ccc1Nc1cncnc1 [Roche-Dataset for PDE10A, Compound 621]
55 | 5.89 nM | CC(C)Cn1ccc(NC(=O)c2nc(C3CC3)ccc2Nc2cncnc2)n1 [Roche-Dataset for PDE10A, Compound 624]
56 | 2.3 nM | Cc1ncc(C)n2nc(CCc3nc(N4CCCC4)nn3C)nc12 [Roche-Dataset for PDE10A, Compound 626]
57 | 19 nM | O=C(Nc1ccn(C2CCCCC2)n1)c1nc(C2CC2)ccc1Nc1cncnc1 [Roche-Dataset for PDE10A, Compound 632]
58 | 26 nM | Cn1nc(-c2ccc(C(F)(F)F)cn2)cc1NC(=O)c1c(C(=O)N2CCC2)cnn1C [Roche-Dataset for PDE10A, Compound 634]
59 | 18 nM | O=C(Nc1ccn(S(=O)(=O)C(F)(F)F)n1)c1nc(C2CC2)ccc1Nc1cncnc1 [Roche-Dataset for PDE10A, Compound 635]
60 | 14 nM | COCCn1ccc(NC(=O)c2nc(C3CC3)ccc2Nc2cncnc2)n1 [Roche-Dataset for PDE10A, Compound 640]
61 | 14 nM | CCCn1ccc(NC(=O)c2nc(C3CC3)ccc2Nc2cncnc2)n1 [Roche-Dataset for PDE10A, Compound 643]
62 | 8.76 nM | CN(C)c1nc2ccc(NC(=O)c3c(C(=O)N4CCC4)cnn3C)cn2n1 [Roche-Dataset for PDE10A, Compound 652]
63 | 9.41 nM | Cc1c(Cl)cc(Cl)c2nc(CCc3cn4ccccc4n3)nn12 [Roche-Dataset for PDE10A, Compound 663]
64 | 8.3 nM | Cn1ncc(C(=O)N2CCC2)c1C(=O)Nc1cc(-c2ccccn2)n[nH]1 [Roche-Dataset for PDE10A, Compound 664]
65 | 13 nM | O=C(Nc1ccccc1C(=O)C1CCCCC1)c1nc(C2CC2)cnc1Nc1cncnc1 [Roche-Dataset for PDE10A, Compound 667]
